Key:
brain slices = assay: Uptake of FDP in brain slices in vitro; assay type: in vitro ADME, Sprague-Dawley rats; details: incubation 1 hour in 500 μg ml-1 FDP, then washed
Protocol: Actual levels of FDP were determined by monitoring absorbance of reduced nicotinamide adenine dinucleotide (NADH) and treating the sample with aldolase (EC 4.1.2.13, 45 units mg-1 diluted 1:27 with distilled water), the enzyme which cleaves FDP into dihydroxyacetone phosphate (DAP) and D-glyceraldehyde 3-phosphate (GAP). DAP and GAP are interconverted by the enzyme triosephosphate isomerase (TIM, EC 5.3.3.1, 5290 units mg-1 diluted 1:120 with distilled water). Glycerol-3-phosphate dehydrogenase (GDH, EC 1.1.1.8, 252 units mg-1 diluted 1:100 with distilled water) catalyzes the reduction of DAP by NADH. […] After 5 min the absorbance was read 3 times at 340 nm, each reading 3 min apart. The average of these readings is the initial absorbance (Ai). This step removes any DAP or GAP in the sample and determines the baseline absorbance. […] Nine minutes after addition of the aldolase, the final absorbance (Af) was determined by 3 readings at 340 nm, each 6 minutes apart. The concentration of FDP in the sample was proportional to the difference in the initial and final absorbance. […] Levels of FDP in blood were determined per ml, while levels in tissue samples were determined as a function of tissue weight.
Additional experiments determined the uptake of FDP in brain slices in vitro. […]

[1] = Markov et al., 2000; cited from earlier work

Q: Which “tissue levels of FDP in brain slices” value (brain slices) does the source give for `O=C(COP(=O)(O)O)[C@@H](O)[C@H](O)[C@H](O)COP(=O)(O)O` [F1,6BP, Fructose-1,6-bisphosphate] here?
A: The value was 0.22 ± 0.013 mg/g.

Q: And the “FDP in blood of humans after administration of FDP” value [1]?
A: Its value is 3.39 mg/dL.
